The values that follow come from paper PMC10669118 (2023).

Structures are written as SMILES.

For assay [1], the system named is STAT (HEX) (DNA, G4) GGGCTGGGGATGGGGAGGGGG
In words: microscale thermophoresis. Conditions: 10 mM KCl, 20 mM sodium phosphate; pH 7.4, 22 °C, DMSO and Tween 20; said to be submicromolar. In general terms: In MST a laser heats a spot of the sample, and binding alters the fluorescence response.

Assay [2] has as its system 22AG (DNA, G4) AGGGTTAGGGTTAGGGTTAGGG
Briefly: FRET melting. The settings on record: 10 mM KCl, 20 mM sodium phosphate, pH 7.4, 20 µM compound; for binding: 1 µM DNA (legend of Figure 3 prints them reversed).

For assay [3], the system named is cKit1 (HEX) (DNA, G4) GGGAGGGCGCTGGGAGGAGGG
Briefly: microscale thermophoresis. The settings on record: 10 mM KCl, 20 mM sodium phosphate; pH 7.4, 22 °C, DMSO and Tween 20; said to be submicromolar.

Assay [4] has as its system 22CTA (DNA, G4) AGGGCTAGGGCTAGGGCTAGGG
Briefly: FRET melting. Conditions: 10 mM KCl, 20 mM sodium phosphate, pH 7.4, 20 µM compound.

The test system of assay [5] is cKit1 (DNA, G4) GGGAGGGCGCTGGGAGGAGGG
Briefly: FRET melting. The settings on record: 10 mM KCl, 20 mM sodium phosphate; pH 7.4; 20 µM compound, 1 µM DNA.

Assay [6] concerns cMyc (DNA, G4) TGAGGGTGGGTAGGGTGGGTAA
In words: FRET melting. The settings on record: 10 mM KCl, 20 mM sodium phosphate; pH 7.4; 20 µM compound, 1 µM DNA.

Assay [7] deals with STAT (DNA, G4) GGGCTGGGGATGGGGAGGGGG
Briefly: FRET melting. Conditions: 10 mM KCl, 20 mM sodium phosphate; pH 7.4; 20 µM compound, 1 µM DNA.

The test system of assay [8] is BclT (DNA, G4) GGGGGCCGTGGGGTGTGAGCTGGGG
In words: FRET melting. Conditions: 10 mM KCl, 20 mM sodium phosphate; pH 7.4; 20 µM compound, 1 µM DNA.

Assay [9] has as its system Hair (DNA, hairpin) GTATAGCTATTTTTATAGCTATA
Briefly: FRET melting. The settings on record: 10 mM KCl, 20 mM sodium phosphate; pH 7.4; 20 µM compound, 1 µM DNA.

In assay [10] the test system is Ct1 (DNA, G4) GGTGACAGGGGTATGGGGAGGGG
In words: FRET melting. The settings on record: 10 mM KCl, 20 mM sodium phosphate; pH 7.4; 20 µM compound, 1 µM DNA.

Assay [11] has as its system VEGF (DNA, G4) GGGAGGGTTGGGGTGGG
Briefly: FRET melting. The settings on record: 25 mM LiCl, 5 mM sodium phosphate; pH 7.4; 20 µM compound, 1 µM DNA.

`CN(C)CCNC(=O)COc1ccc2c(c1)nc1ccn(CC(=O)NCCN(C)C)c(=O)n12`: in [1], the Kd (usually the concentration at which binding is half-saturated) was determined as 0.4 µM. In other words, the sub-micromolar range.
As for `N=C(N)NCCNC(=O)COc1cc2nc3ccn(CC(=O)NCCNC(=N)N)c(=O)n3c2c2ccccc12`, the binding entry in [2] is given as “yes”.
For the compound `NCCNC(=O)COc1cc2nc3ccn(CC(=O)NCCN)c(=O)n3c2c2ccccc12`, the binding result in [2] and in assay [4] (1 µM DNA (legend of Figure 3 prints them reversed)) was “yes” throughout. The same compound gave a Kd in assay [3] of 0.5 µM.
With `NCCNC(=O)Cn1ccc2nc3cc(O)c4ccccc4c3n2c1=O`, the Kd is reported as 0.6 µM in assay [3] and 0.5 µM in assay [1].
As to `NCCNC(=O)Cn1ccc2nc3cc(O)ccc3n2c1=O`, the ΔTm – broadly, the shift of the melting midpoint relative to a reference – in assay [5] is 3 ± 2 °C; in [6], 1 ± 2 °C; in assay [2] (1 µM DNA), 1 ± 2 °C; in assay [7] it was 1 ± 2 °C; in assay [8] it was 0 ± 2 °C; in [9], -1 ± 2 °C. Moreover, the ΔTm in assay [10] came out at 2 ± 2 °C; in assay [4] (1 µM DNA), 1 ± 2 °C; in [11] it was 1 ± 2 °C.
